Results reported in patent publication US10131652B2, “Pyrimidinyloxy benzene derivatives as herbicides” (E. I. DU PONT DE NEMOURS AND COMPANY, priority 2014, dated 2018).
Like-named read-outs stand apart in the source and are kept apart here.

Key:
Test in all cases: Test E pre-/postemergence plant response
Assay type in all cases: in vivo
[1] = test system: canarygrass (Phalaris minor); conditions: scale 0 to 100, read-out: Plant response rating, Canarygrass; for pest or weed control at 16 g/ha: 16 g ai/ha; for pest or weed control at 31 g/ha: 31 g ai/ha; for pest or weed control at 62 g/ha: 62 g ai/ha; for pest or weed control at 125 g/ha: 125 g ai/ha
Outline: (§1)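 Visual scores on a 0–100 scale (100 = complete control) were assigned against untreated controls 7–21 days after treatment in a controlled environment. Compounds, formulated with solvent plus surfactant, were applied to pre-emergence silt-loam sowings or to 1- to 4-leaf plants (2–18 cm) in potting medium.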

[2] = test system: wild mustard (Sinapis arvensis); conditions: Brassica, scale 0 to 100, read-out: Plant response rating, Mustard, Wild; for pest or weed control at 16 g/ha: 16 g ai/ha; for pest or weed control at 31 g/ha: 31 g ai/ha; for pest or weed control at 62 g/ha: 62 g ai/ha; for pest or weed control at 125 g/ha: 125 g ai/ha
Outline: as §1

[3] = test system: galium (catchweed bedstraw, Galium aparine); conditions: scale 0 to 100, read-out: Plant response rating, Galium; for pest or weed control at 16 g/ha: 16 g ai/ha; for pest or weed control at 31 g/ha: 31 g ai/ha; for pest or weed control at 62 g/ha: 62 g ai/ha; for pest or weed control at 125 g/ha: 125 g ai/ha
Outline: as §1

[4] = test system: chickweed (common chickweed, Stellaria media); conditions: scale 0 to 100, read-out: Plant response rating, Chickweed; for pest or weed control at 16 g/ha: 16 g ai/ha; for pest or weed control at 31 g/ha: 31 g ai/ha; for pest or weed control at 62 g/ha: 62 g ai/ha; for pest or weed control at 125 g/ha: 125 g ai/ha
Outline: as §1

[5] = test system: speedwell (bird's-eye speedwell, Veronica persica); conditions: scale 0 to 100, read-out: Plant response rating, Speedwell; for pest or weed control at 16 g/ha: 16 g ai/ha; for pest or weed control at 62 g/ha: 62 g ai/ha; for pest or weed control at 125 g/ha: 125 g ai/ha
Outline: as §1

[6] = test system: spring barley (Hordeum vulgare); conditions: for plant injury at 16 g/ha: 16 g ai/ha; for plant injury at 31 g/ha: 31 g ai/ha; for plant injury at 62 g/ha: 62 g ai/ha; for plant injury at 125 g/ha: 125 g ai/ha
Outline: as §1

[7] = test system: windgrass (Apera spica-venti); conditions: scale 0 to 100, read-out: Plant response rating, Windgrass; for pest or weed control at 16 g/ha: 16 g ai/ha; for pest or weed control at 62 g/ha: 62 g ai/ha; for pest or weed control at 125 g/ha: 125 g ai/ha
Outline: as §1

[8] = test system: bluegrass (annual bluegrass, Poa annua); conditions: scale 0 to 100, read-out: Plant response rating, Bluegrass; for pest or weed control at 16 g/ha: 16 g ai/ha; for pest or weed control at 31 g/ha: 31 g ai/ha; for pest or weed control at 62 g/ha: 62 g ai/ha; for pest or weed control at 125 g/ha: 125 g ai/ha
Outline: as §1

[9] = test system: downy bromegrass (Bromus tectorum); conditions: scale 0 to 100, read-out: Plant response rating, Bromegrass, Downy; for pest or weed control at 16 g/ha: 16 g ai/ha; for pest or weed control at 31 g/ha: 31 g ai/ha; for pest or weed control at 62 g/ha: 62 g ai/ha; for pest or weed control at 125 g/ha: 125 g ai/ha
Outline: as §1

[10] = test system: winter barley (Hordeum vulgare); conditions: scale 0 to 100, read-out: Plant response rating, Barley, Winter; for plant injury at 16 g/ha: 16 g ai/ha; for plant injury at 31 g/ha: 31 g ai/ha; for plant injury at 62 g/ha: 62 g ai/ha; for plant injury at 125 g/ha: 125 g ai/ha
Outline: as §1

[11] = post-emergence, 31 g ai/ha, Postemergence
[12] = post-emergence, Postemergence, scale 0 to 100, read-out: Plant response rating, Barley, Spring
[13] = pre-emergence, Preemergence, scale 0 to 100, read-out: Plant response rating, Barley, Spring

`Fc1cccc(Oc2ncc(Cl)cn2)c1-c1cc(C(F)F)on1` [Compound 55, 5-chloro-2-[2-[5-(difluoromethyl)-3-isoxazolyl]-3-fluorophenoxy]pyrimidine] was tested, and the pest or weed control at 16 g/ha ([1]; post-emergence, Postemergence) was 10%, the pest or weed control at 31 g/ha ([1]; post-emergence, Postemergence) was 20% and the pest or weed control at 62 g/ha ([1]; post-emergence, Postemergence) was 30%. The pest or weed control at 125 g/ha ([1]; post-emergence, Postemergence) was 30%, the pest or weed control at 16 g/ha ([1]; pre-emergence, Preemergence) was 10% and the pest or weed control at 31 g/ha ([1]; pre-emergence, Preemergence) was 20%. For the same compound, the pest or weed control at 62 g/ha ([1]; pre-emergence, Preemergence) was 100%, the pest or weed control at 125 g/ha ([1]; pre-emergence, Preemergence) was 100% and the pest or weed control at 16 g/ha ([2]; post-emergence, Postemergence) was 70%. For the same compound, the pest or weed control at 31 g/ha ([2]; post-emergence, Postemergence) was 85%, the pest or weed control at 62 g/ha ([2]; post-emergence, Postemergence) was 95% and the pest or weed control at 125 g/ha ([2]; post-emergence, Postemergence) was 95%. The pest or weed control at 16 g/ha ([2]; pre-emergence, Preemergence) was 80%, the pest or weed control at 31 g/ha ([2]; pre-emergence, Preemergence) was 100% and the pest or weed control at 62 g/ha ([2]; pre-emergence, Preemergence) was 100%. For the same compound, the pest or weed control at 125 g/ha ([2]; pre-emergence, Preemergence) was 100%, the pest or weed control at 16 g/ha ([3]; post-emergence, Postemergence) was 70% and the pest or weed control at 31 g/ha ([3]; post-emergence, Postemergence) was 85%. The pest or weed control at 62 g/ha ([3]; post-emergence, Postemergence) was 80%, the pest or weed control at 125 g/ha ([3]; post-emergence, Postemergence) was 85% and the pest or weed control at 16 g/ha ([3]; pre-emergence, Preemergence) was 10%. The pest or weed control at 31 g/ha ([3]; pre-emergence, Preemergence) was 100%, the pest or weed control at 62 g/ha ([3]; pre-emergence, Preemergence) was 70% and the pest or weed control at 125 g/ha ([3]; pre-emergence, Preemergence) was 100%. For the same compound, the pest or weed control at 16 g/ha ([4]; post-emergence, Postemergence) was 55%, the pest or weed control at 31 g/ha ([4]; post-emergence, Postemergence) was 55% and the pest or weed control at 62 g/ha ([4]; post-emergence, Postemergence) was 70%. For the same compound, the pest or weed control at 125 g/ha ([4]; post-emergence, Postemergence) was 70%, the pest or weed control at 16 g/ha ([4]; pre-emergence, Preemergence) was 65% and the pest or weed control at 31 g/ha ([4]; pre-emergence, Preemergence) was 100%. For the same compound, the pest or weed control at 62 g/ha ([4]; pre-emergence, Preemergence) was 100%, the pest or weed control at 125 g/ha ([4]; pre-emergence, Preemergence) was 100% and the pest or weed control at 16 g/ha ([5]; post-emergence, Postemergence) was 75%. The pest or weed control at 31 g/ha [5, 11] was 80%, the pest or weed control at 62 g/ha ([5]; post-emergence, Postemergence) was 100% and the pest or weed control at 125 g/ha ([5]; post-emergence, Postemergence) was 100%. For the same compound, the pest or weed control at 16 g/ha ([5]; pre-emergence, Preemergence) was 100%, the pest or weed control at 62 g/ha ([5]; pre-emergence, Preemergence) was 100% and the pest or weed control at 125 g/ha ([5]; pre-emergence, Preemergence) was 100%. It also gave a plant injury at 16 g/ha [6, 12] of 10%, a plant injury at 31 g/ha [6, 12] of 10% and a plant injury at 62 g/ha [6, 12] of 15%. The plant injury at 125 g/ha ([6]; post-emergence, Postemergence, scale 0 to 100 (0 no effect, 100 complete control), read-out: Plant response rating, Barley, Spring) was 20%, the plant injury at 16 g/ha [6, 13] was 10% and the plant injury at 31 g/ha [6, 13] was 10%. For the same compound, the plant injury at 62 g/ha [6, 13] was 45%, the plant injury at 125 g/ha [6, 13] was 50% and the pest or weed control at 16 g/ha ([7]; post-emergence, Postemergence) was 5%. The pest or weed control at 31 g/ha [7, 11] was 10%, the pest or weed control at 62 g/ha ([7]; post-emergence, Postemergence) was 25% and the pest or weed control at 125 g/ha ([7]; post-emergence, Postemergence) was 40%. The pest or weed control at 16 g/ha ([7]; pre-emergence, Preemergence) was 5%, the pest or weed control at 62 g/ha ([7]; pre-emergence, Preemergence) was 100% and the pest or weed control at 125 g/ha ([7]; pre-emergence, Preemergence) was 100%. The pest or weed control at 16 g/ha ([8]; post-emergence, Postemergence) was 0%, the pest or weed control at 31 g/ha ([8]; post-emergence, Postemergence) was 0% and the pest or weed control at 62 g/ha ([8]; post-emergence, Postemergence) was 15%. For the same compound, the pest or weed control at 125 g/ha ([8]; post-emergence, Postemergence) was 25%, the pest or weed control at 16 g/ha ([8]; pre-emergence, Preemergence) was 0% and the pest or weed control at 31 g/ha ([8]; pre-emergence, Preemergence) was 10%. For the same compound, the pest or weed control at 62 g/ha ([8]; pre-emergence, Preemergence) was 10%, the pest or weed control at 125 g/ha ([8]; pre-emergence, Preemergence) was 100% and the pest or weed control at 16 g/ha ([9]; post-emergence, Postemergence) was 5%. It also gave a pest or weed control at 31 g/ha ([9]; post-emergence, Postemergence) of 0%, a pest or weed control at 62 g/ha ([9]; post-emergence, Postemergence) of 10% and a pest or weed control at 125 g/ha ([9]; post-emergence, Postemergence) of 10%. It also gave a pest or weed control at 16 g/ha ([9]; pre-emergence, Preemergence) of 20%, a pest or weed control at 31 g/ha ([9]; pre-emergence, Preemergence) of 20% and a pest or weed control at 62 g/ha ([9]; pre-emergence, Preemergence) of 55%. The pest or weed control at 125 g/ha ([9]; pre-emergence, Preemergence) was 55%, the plant injury at 16 g/ha ([10]; post-emergence, Postemergence) was 0% and the plant injury at 31 g/ha ([10]; post-emergence, Postemergence) was 0%. It also gave a plant injury at 62 g/ha ([10]; post-emergence, Postemergence) of 5%, a plant injury at 125 g/ha ([10]; post-emergence, Postemergence) of 10% and a plant injury at 16 g/ha ([10]; pre-emergence, Preemergence) of 5%. It also gave a plant injury at 31 g/ha ([10]; pre-emergence, Preemergence) of 10%, a plant injury at 62 g/ha ([10]; pre-emergence, Preemergence) of 10% and a plant injury at 125 g/ha ([10]; pre-emergence, Preemergence) of 35%.
